Results: patent US12409161B2, “Compound for treating neurodegenerative disorders” (FUDAN UNIVERSITY, priority 2019, dated 2025)

Key:
Q25-GFP [1] = test: Level of polyQ-GFP fusion protein in HEK293T cells (Incucyte fluorescence counting); format: cell-based; details: 100 nM compound 1 or 50 nM compound 2 for 2 days
Description: (§1) The inventors used HEK293T cells exogenously expressing polyQ-GFP fusion proteins (Q72-GFP or Q25-GFP) to detect compounds that can control the level of proteins containing expanded polyglutamine in the cells. The method was as follows:
(§2) (1) PolyQ-GFP cDNA sequence (expressing Met-polyQ-GFP, wherein polyQ was Q72 or Q25) was synthesized de novo and subcloned into pcDNA vector. It was transfected into HEK293T cells (ATCC, CRL-3216) through forward transfection to obtain Q72-GFP expressing cells and Q25-GFP expressing cells, respectively. And the same method was used to obtain cells expressing Q53-GFP, cells expressing Q46-GFP, and cells expressing Q38-GFP.
(§3) (3) The Q72-GFP expressing cells and Q25-GFP expressing cells obtained in step (1) were used. […] Then the level of polyQ-GFP was measured by Incucyte fluorescence counting (FIG. 1).

Q72-GFP = test: as above; format: cell-based; details: 100 nM compound 1 or 50 nM compound 2 for 2 days
Description: as §1, §2, §3

[2] = target: T1, full-length mHTT (flHTT-Q73) (Homo sapiens, UniProt P42858, INS38QQQQQQQQQQQQQQQQQQQQQQQQQQQQQQQQQQQQQQQQQQQQQQQQQQQQ); test: OI-RD detection of affinity to full-length HTT; format: binding
T1 construct: protein A (N, cleaved yes); made in house; host or cells: human embryonic kidney E293 cells
Procedure: (1) The human HTT gene (GenBank: NM_002111.8) with (CAG)23 or (CAG)73 was synthesized de novo by Genewiz Inc. The human HTT gene was cloned into the modified pCAG vector (from Addgene) with N-terminal protein A tag.
The protein is purified with IgG monoclonal antibody-agarose (Smart-lifesciences, SA030010), digested with TEV protease to remove the protein A tag, and further purified with Mono Q and Superose 6 (5/150 GL) columns from GE healthcare. Validation is conducted using Coomassie blue staining and Western-blots.

mHTT [3] = test: Western-blot of HTT levels in primary cultured Hdh^Q140/Q7 mouse cortical neurons; format: cell-based; details: treated 2 days, Western-blots (antibody 2166)
Procedure: (§4) Primary cultured cortical neurons: The brains of Hdh^Q140/Q7 and Hdh^Q7/Q7 newborn mice (P0) were dissected, digested, dissociated, and cultured.
(§5) (1) The primary cultured Hdh^Q140/Q7 and Hdh^Q7/Q7 mouse cortical neuron cells were treated with the compound for 2 days. Then the levels of mHTT and wtHTT were detected by Western-blots (antibody 2166) (FIG. 4 and FIG. 5). […]

wtHTT [4] = target: T2, wtHTT (Mus musculus, UniProt P42859); details: Hdh^Q140/Q7 mouse cortical neurons, treated 2 days, Western-blots (antibody 2166)
Procedure: as §4
(1) The primary cultured Hdh^Q140/Q7 and Hdh^Q7/Q7 mouse cortical neuron cells were treated with the compound for 2 days.

mHTT [5] = target: T3, mHTT (Homo sapiens, UniProt P42858, INS38QQQQQQQQQQQQQQQQQQQQQQQQQQ); test: HTRF of mHTT in HD patient iPSC-derived neurons (Q47); format: cell-based
T3 construct: endogenous in cells; host or cells: HD patient iPSC-derived neurons (Q47)
T3 sequence (P42858 with tags, fused parts or gaps, stated change not applied): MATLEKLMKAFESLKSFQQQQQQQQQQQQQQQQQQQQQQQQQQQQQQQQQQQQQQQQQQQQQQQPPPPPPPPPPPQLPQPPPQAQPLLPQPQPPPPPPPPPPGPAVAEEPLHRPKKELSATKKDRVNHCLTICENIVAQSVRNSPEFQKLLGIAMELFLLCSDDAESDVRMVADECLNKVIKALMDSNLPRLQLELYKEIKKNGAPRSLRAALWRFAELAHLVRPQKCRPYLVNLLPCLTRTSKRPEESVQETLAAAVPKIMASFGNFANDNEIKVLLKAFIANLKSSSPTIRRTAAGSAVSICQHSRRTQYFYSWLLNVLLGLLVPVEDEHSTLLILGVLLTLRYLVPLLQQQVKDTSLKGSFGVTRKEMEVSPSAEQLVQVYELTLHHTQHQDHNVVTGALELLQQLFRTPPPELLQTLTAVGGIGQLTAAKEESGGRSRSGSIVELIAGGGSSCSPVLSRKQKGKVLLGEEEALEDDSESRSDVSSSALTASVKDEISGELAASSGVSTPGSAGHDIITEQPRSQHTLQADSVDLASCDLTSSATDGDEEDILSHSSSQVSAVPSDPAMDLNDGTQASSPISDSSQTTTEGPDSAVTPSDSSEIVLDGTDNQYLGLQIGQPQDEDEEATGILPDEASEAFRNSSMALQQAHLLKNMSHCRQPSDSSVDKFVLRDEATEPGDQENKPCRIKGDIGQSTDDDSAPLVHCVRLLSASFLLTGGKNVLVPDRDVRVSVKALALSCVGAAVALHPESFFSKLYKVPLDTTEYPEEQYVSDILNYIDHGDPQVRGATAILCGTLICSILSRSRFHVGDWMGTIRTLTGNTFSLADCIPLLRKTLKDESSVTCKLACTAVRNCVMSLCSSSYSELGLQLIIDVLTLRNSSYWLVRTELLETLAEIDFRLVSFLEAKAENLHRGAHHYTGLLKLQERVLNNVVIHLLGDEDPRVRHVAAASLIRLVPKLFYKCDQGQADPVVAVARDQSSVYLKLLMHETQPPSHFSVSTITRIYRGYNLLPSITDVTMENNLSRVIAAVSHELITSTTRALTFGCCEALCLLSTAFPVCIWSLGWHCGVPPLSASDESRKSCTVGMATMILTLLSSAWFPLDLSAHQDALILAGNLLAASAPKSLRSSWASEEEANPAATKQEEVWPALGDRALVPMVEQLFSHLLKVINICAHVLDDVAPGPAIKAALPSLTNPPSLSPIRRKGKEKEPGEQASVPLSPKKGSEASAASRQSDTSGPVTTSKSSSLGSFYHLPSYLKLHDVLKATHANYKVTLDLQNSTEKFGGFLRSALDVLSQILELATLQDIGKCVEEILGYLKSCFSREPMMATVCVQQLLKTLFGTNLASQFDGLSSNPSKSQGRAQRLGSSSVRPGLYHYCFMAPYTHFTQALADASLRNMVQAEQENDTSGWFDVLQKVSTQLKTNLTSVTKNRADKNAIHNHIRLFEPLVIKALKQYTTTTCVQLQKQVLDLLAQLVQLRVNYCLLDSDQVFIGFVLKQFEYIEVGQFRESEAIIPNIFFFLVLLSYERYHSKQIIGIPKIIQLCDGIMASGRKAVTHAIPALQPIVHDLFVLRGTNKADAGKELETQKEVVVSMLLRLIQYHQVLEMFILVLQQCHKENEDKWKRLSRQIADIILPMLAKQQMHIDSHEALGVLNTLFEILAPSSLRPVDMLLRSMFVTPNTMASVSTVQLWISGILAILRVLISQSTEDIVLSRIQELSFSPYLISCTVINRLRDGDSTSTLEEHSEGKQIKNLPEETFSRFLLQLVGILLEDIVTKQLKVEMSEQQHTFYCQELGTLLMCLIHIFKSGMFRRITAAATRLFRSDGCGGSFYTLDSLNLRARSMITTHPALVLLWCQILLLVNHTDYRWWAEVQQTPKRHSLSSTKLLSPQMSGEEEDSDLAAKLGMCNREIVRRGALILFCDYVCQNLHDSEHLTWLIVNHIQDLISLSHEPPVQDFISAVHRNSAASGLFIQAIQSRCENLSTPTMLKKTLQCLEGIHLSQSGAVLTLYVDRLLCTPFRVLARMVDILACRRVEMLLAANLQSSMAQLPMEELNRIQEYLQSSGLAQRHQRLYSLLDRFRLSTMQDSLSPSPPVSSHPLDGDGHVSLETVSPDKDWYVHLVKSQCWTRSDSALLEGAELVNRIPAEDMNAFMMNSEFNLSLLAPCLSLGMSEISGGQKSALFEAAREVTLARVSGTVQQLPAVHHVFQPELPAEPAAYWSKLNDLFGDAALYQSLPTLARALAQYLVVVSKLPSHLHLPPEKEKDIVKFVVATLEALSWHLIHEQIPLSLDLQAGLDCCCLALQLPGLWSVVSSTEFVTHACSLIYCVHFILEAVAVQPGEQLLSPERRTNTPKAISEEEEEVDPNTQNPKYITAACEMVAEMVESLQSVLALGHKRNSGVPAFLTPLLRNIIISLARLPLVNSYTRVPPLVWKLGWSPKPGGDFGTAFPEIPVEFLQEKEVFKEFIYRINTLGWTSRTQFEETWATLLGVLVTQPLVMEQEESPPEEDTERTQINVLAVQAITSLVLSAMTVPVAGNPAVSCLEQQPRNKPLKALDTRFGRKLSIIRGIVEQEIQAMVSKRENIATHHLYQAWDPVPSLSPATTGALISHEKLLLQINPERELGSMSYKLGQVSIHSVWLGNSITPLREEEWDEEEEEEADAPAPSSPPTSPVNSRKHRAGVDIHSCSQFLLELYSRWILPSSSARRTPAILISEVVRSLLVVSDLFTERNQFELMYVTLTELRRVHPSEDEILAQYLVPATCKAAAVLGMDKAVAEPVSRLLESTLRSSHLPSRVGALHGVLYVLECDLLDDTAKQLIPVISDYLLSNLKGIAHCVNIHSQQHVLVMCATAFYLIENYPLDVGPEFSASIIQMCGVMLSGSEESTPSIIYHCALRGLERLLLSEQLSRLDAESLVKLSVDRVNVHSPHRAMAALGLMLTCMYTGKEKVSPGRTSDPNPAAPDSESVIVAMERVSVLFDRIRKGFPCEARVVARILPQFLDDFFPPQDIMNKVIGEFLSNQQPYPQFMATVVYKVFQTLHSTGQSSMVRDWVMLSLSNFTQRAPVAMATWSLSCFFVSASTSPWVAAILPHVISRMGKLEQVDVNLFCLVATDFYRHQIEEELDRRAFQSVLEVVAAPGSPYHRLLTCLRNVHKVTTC

[6] = tested on: HD patient iPSC-derived neurons (Q47); test: Neuronal apoptosis of HD patient iPSC-derived neurons after BDNF removal (TUBB3 immunostaining, caspase-3 activity); format: cell-based, human; details: 100 nM compound 1 or 50 nM compound 2 for 1 day, then BDNF removal
Procedure: Immunofluorescence: cells were washed, fixed, permeabilized and blocked, then incubated with primary antibody overnight at 4° C., then washed three times with blocking buffer, and incubated with secondary antibody for 1 hour at room temperature, stained with DAPI, and mounted. Images were taken by Zeiss Axio Vert A1 confocal microscope. TUBB3 or co-localization was analyzed using ImageJ.
Then the cells were stressed (by BDNF removal).
Neuronal specific tubulin marker TUBB3 […]. The TUBB3 signal covered area was normalized to the cell nuclei counts, and the data was normalized to the wild type controls to analyze neuronal apoptosis (FIG. 12).
NucView 488 (Biotium, 30029) was used to detect active caspase-3. After removing BDNF, Incucyte (Essen Bioscience, IncuCyte FLR) was used to capture images every 3 hours in the incubator, which were analyze with Incucyte 2011A software. Three batches were tested and the results were consistent (FIG. 13).

[7] = target: T4, human HTT full-length protein (Q128) (Homo sapiens, UniProt P42858); test: mHTT level in heads of Huntington's disease Drosophilae (HTRF); format: in vivo, Drosophila; details: food with 10 μM in 400 μL DMSO, 6 days, head protein, HTRF 2B7/MW1
T4 construct: transgenic Drosophilae expressing human HTT full-length protein (Q128); tissue Bloomington Drosophila Stock Center (fly lines); host or cells: heads of elav-GAL4 x UAS-fl-HTT-Q128 Drosophila
Procedure: Crosses were set up between virgin female Drosophilae carrying elav-GAL4 driver and the UAS-fl-HTT-Q16 or UAS-fl-HTT-Q128 male Drosophilae to generate a transgenic Drosophilae driven by elav-GAL4 to express human HTT full-length protein (Q16) or (Q128) in the nervous system.
The negative control group was given the corresponding solvent DMSO, and the positive drug groups was given the corresponding positive drug.
Drosophilae were kept in standard food at 25° C. The newly hatched Drosophilae were transferred to vials with food containing the positive drug (10 μM in 400 μL DMSO) or DMSO for control. The corn food was changed every other day.
The mHTT level was measured by HTRF (antibody pair: 2B7/MW1), where each sample included head proteins from five Drosophila (FIG. 14).

[8] = target: T5, mutant ATXN3 protein (ATXN3-Q74) (Homo sapiens, UniProt P54252, G306R/INS305QQQQQQQQQQQQQQQQQQQQQQQQQQQQQQQQQQQQQQQQQQQQQQQQQQQQQQQQQQQQQQQQ/V212M); test: Western-blot of ATXN3 level in SCA3 patient fibroblasts (Q74); format: cell-based; details: 100 nM compound 1 or 50 nM compound 2 for 2 days, Western-blots
T5 construct: endogenous in cells; host or cells: SCA3 patient fibroblasts (Q74)
T5 sequence (P54252 with tags, fused parts or gaps isoform P54252-1 with the stated changes): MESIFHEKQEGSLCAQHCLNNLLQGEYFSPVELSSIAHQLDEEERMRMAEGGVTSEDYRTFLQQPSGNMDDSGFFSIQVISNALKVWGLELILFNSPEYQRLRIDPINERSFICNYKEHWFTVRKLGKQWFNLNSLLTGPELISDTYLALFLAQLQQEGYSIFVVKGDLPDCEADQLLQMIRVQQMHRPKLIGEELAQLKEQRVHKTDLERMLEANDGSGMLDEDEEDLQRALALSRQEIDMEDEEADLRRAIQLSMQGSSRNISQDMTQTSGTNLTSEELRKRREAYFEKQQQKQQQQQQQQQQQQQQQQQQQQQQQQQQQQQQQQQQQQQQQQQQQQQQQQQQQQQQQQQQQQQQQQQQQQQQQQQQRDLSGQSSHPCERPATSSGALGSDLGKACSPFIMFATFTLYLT
Procedure: (§6) Some primary patient fibroblasts and wild-type cells are from HD patients (Q47, Q55) of the Mongolian Huntington's disease family and healthy controls (WT, Q19). SCA3 cell line was from patient (Q74). The HD Q68 fibroblast cell line was from Coriell Cell Repositories (Camden, N.J., USA). Immortalized fibroblasts and induced stem cells (iPSCs) are prepared from primary fibroblasts. HEK293T cells were from ATCC.
(§7) Then the levels of mutant ATXN3 protein (ATXN3-Q74, SEQ ID NO: 3) and wild-type ATXN3 protein (ATXN3-Q27, SEQ ID NO: 4) were determined by Western-blots (FIG. 22). […] Therefore, the compound can be used to treat SCA3.

[9] = target: T6, wild-type ATXN3 protein (ATXN3-Q27) (Homo sapiens, UniProt P54252, G306R/INS305QQQQQQQQQQQQQQQQQ/V212M); test: Western-blot of ATXN3 level in fibroblasts; format: cell-based; details: 100 nM compound 1 or 50 nM compound 2 for 2 days; Western-blots
T6 construct: endogenous in cells; host or cells: wild-type fibroblasts (Q27), and possibly the normal allele of SCA3 patient fibroblasts
T6 sequence (P54252 with tags, fused parts or gaps isoform P54252-1 with the stated changes): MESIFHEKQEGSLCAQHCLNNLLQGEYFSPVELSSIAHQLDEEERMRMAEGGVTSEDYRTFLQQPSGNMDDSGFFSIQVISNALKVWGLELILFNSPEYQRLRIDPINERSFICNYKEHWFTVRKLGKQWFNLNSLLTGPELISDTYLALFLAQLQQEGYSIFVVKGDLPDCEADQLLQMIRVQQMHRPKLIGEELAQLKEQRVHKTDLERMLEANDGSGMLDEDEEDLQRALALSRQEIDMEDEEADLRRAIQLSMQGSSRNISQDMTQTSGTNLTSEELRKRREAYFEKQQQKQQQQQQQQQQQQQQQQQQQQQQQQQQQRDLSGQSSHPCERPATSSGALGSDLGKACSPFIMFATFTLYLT
Procedure: as §6, §7

[10] = target: T7, mutant ATXN1 protein (His-ATXN1-Q92) (Homo sapiens, UniProt P54253, INS208QQQQQQQQQQQQQQQQQQQQQQQQQQQQQQQQQQQQQQQQQQQQQQQQQQQQQQQQQQQQQQQQQQQQQQQQQQQQQQQQ); test: HTRF of mutant ATXN1 level in HEK293T cells expressing His-ATXN1-Q92; format: cell-based; details: 100 nM for 2 days, HTRF anti-His-Tb/MW1-D2
T7 construct: expressed in transfected cells; host or cells: HEK293T (ATCC, CRL-3216)
T7 sequence (P54253 with tags, fused parts or gaps with the stated changes): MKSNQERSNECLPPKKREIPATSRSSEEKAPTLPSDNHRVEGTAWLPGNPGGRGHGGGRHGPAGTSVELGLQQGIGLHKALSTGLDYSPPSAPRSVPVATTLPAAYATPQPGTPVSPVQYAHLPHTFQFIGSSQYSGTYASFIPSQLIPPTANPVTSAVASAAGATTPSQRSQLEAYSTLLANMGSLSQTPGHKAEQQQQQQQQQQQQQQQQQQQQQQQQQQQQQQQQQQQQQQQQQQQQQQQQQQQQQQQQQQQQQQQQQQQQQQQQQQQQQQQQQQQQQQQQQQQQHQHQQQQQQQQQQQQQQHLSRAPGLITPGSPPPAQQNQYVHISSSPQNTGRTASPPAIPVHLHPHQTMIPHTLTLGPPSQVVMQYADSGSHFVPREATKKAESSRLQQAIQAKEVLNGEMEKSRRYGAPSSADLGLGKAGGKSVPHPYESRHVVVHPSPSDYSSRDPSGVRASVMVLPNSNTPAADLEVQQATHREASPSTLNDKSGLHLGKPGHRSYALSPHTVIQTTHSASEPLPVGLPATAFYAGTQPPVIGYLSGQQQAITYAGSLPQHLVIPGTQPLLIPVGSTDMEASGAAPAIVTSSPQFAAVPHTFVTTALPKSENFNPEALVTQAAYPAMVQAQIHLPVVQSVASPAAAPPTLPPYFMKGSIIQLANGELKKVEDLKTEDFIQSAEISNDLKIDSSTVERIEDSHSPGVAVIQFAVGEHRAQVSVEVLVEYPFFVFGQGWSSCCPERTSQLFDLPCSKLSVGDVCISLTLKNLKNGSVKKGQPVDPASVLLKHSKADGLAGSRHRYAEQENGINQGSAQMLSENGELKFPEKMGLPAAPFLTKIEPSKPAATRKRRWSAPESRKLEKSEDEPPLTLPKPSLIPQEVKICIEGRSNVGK

wtHTT [11] = target: T2, wtHTT; test: Western-blot of HTT levels in primary cultured Hdh^Q7/Q7 mouse cortical neurons; format: cell-based; set-up: endogenous in cells; host or cells: primary cortical neurons of newborn Hdh Q140/Q7 or Hdh Q7/Q7 mice; details: treated 2 days, Western-blots (antibody 2166)
Procedure: as §4, §5

mHTT [12] = test: Intracerebroventricular injection: mHTT and wtHTT levels in cortices of HD mice (Western-blots); format: in vivo, mouse; details: Hdh^Q140/Q7 mice; icv 2 μL of 25 μM per day, 10 days; Western-blots (antibody 2166)
Procedure: Mice expressing wild-type HTT gene (Hdh^Q7/Q7) were from the Marian Difiglia laboratory of Massachusetts General Hospital, Harvard University.
Experimental animals: Hdh^Q140/Q7 mice (3 months old), 4 in each group.
Each test includes three repetitions for each sample, and the mean values was calculated (FIG. 17).

[13] = In vivo compound detection in brain tissues of ip-injected mice (LC-MS/MS); details: mouse, 2 hours after ip-injection (0.5 mg/kg), read-out: level of compound reached the brain tissue
Procedure: (§8) Experimental method: The compound or control DMSO was diluted with 0.9% NaCl intravenous infusion solution to 0.05 μg/μL. One ip-injection (0.5 mg/kg) was conducted per day. After 14 days of injection, tissue extraction or behavioral experiment were conducted.
In vivo compound detection in brain tissues of ip-injected mice: 2 hours after ip-injection of DMSO or compound in mice, the brain was dissected, weighed, and the compound in the brain tissue was extracted, analyzed with UPLC-MS (Acquity Ultra Performance Liquid Chromatography System, Acquity UPLC BEH C18 (1.7 μm, 2.1×50 mm) column and Xevo TQ-S mass spectrometer, Waters Corporation, Milford, MA, USA) for LC-MS/MS analysis. […] The compound of the present invention can be delivered to the brain of mice through the BBB smoothly, which potentially facilitates oral administration of the compound.

mHTT [14] = test: Intraperitoneal injection: mHTT and wtHTT levels in cortices and striata of HD mice (Western-blots); format: in vivo, mouse; details: Hdh^Q140/Q7 mice, ip 0.5 mg/kg per day, 14 days
Procedure: as §8
(1) 13 Hdh^Q140/Q7 mice (5 months old) were randomized into 2 groups.
One ip-injection was conducted per day. After 14 days of injection, the protein was extracted and the levels of mHTT and wtHTT in the cortices of HD mice were detected by Western-blots (FIG. 18).
(2) A total of 13 mice Hdh^Q140/Q7 mice (10 months old) were used, 6-7 mice in each group. According to the above method, the mouse brain striatum neuronal protein was extracted and the levels of mHTT and wtHTT were detected by Western-blots (FIG. 19).

mHTT aggregates = mHTT aggregates in cortices of Hdh^Q140/Q7 mice (dot-blot, HTRF 4C9/4C9); format: in vivo, mouse; details: ip-injection, dot-blot 4C9 and HTRF 4C9/4C9
Procedure: as §8
(3) mHTT aggregates in the cortices of Hdh^Q140/Q7 mice were detected by dot-blot experiment (antibody: 4C9, bar plot showing the results of two repetitions) and HTRF (antibody pair: 4C9/4C9). Sampling was repeated for each mouse two to three times on average (FIG. 20).

[15] = target: T8, normal ATXN3 protein (MBP-ATXN3-Q28) (Homo sapiens, UniProt P54252, INS305QQQQQQQQQQQQQQQQQQ); test: MST detection of affinity to ATXN3; format: binding; details: method in 2.2
T8 construct: His8; made in house; host or cells: Escherichia coli Rosetta(DE3)pLysS
Procedure: (1) His8 tag and TEV protease cleavage site is added in pMal-C2x plasmid (from New England Biolabs) to prepare prokaryotic expression vector pMBP. The ATXN3 gene (GenBank: NM_001127696.2) is edited to control the length of the expanded polyglutamine, the gene is amplified and cloned into the prepared pMBP to obtain the pMBP-ATXN3-Q28 and pMBP-ATXN3-Q68 plasmids with polyQ repeated 28 and 68 times, respectively.
(2) The expression plasmids pMBP-ATXN3-Q28 and pMBP-ATXN3-Q68 were introduced into Escherichia coli Rosetta(DE3)pLsyS for expression. Preliminary purification was conducted with HisTrap HP column (GE Healthcare, 17524701). The product was concentrated by ultrafiltration and then further purified with Superose 6 Increase 10/300 GL size exclusion column (GE Healthcare).
(3) As verified by SDS-PAGE, the purity of the prepared human MBP-ATXN3-Q28 and MBP-ATXN3-Q68 exceeds 98%.

Q25-GFP [16] = details: MST; 20 mM HEPES, pH 7.4, 150 mM NaCl; protein 500 nM
mHTT [17] = test: HTRF of mHTT in HD patient immortalized fibroblasts; details: at different doses (FIG. 10)
Procedure: Homogeneous time-resolved fluorescence (HTRF) analysis: the cell or tissue lysate was diluted with the original lysis buffer PBS+1% (v/v) Triton X-100+1×cOmplete™ protease inhibitor to lyse the sample, then HTRF assay buffer (50 mM NaH2PO4, 400 mM NaF, 0.1% BSA, 0.05% (v/v) Tween-20, 1% (v/v) Triton X-100, pH 7.4) was used to dilute the specified antibody pair for detection. In HTRF buffer, the donor antibody concentration was 0.023 ng/μL and the acceptor antibody concentration was 1.4 ng/μL.

| SMILES | level of the protein containing the shorter polyglutamine (Q25-GFP) (Q25-GFP [1]) | level of the protein containing expanded polyglutamine (Q72-GFP) (Q72-GFP) | level of mHTT in cortical neurons (mHTT [3]) | loss of processes and shrinkage of HD neurons after removal of BDNF [6] | mutant ATXN3 protein level [8] | wild-type ATXN3 protein level [9] | levels of mutant ATXN1 [10] | further results |
| --- | --- | --- | --- | --- | --- | --- | --- | --- |
| Cc1ccc(C(=O)N(CCCN)[C@@H](c2nc3cc(Cl)ccc3c(=O)n2Cc2ccccc2)C(C)C)cc1 [compound 1, ispinesib] | did not reduce | effectively reduced | reduced | significantly improved | decrease | no decrease | Decreased levels | Kon [2]: 6.43e-05 min/nM; level of wtHTT in cortical neurons (wtHTT [4]): hardly affected; mHTT levels in HD patient iPSC-derived neurons (mHTT [5]; neurons Q47, HTRF 2B7/MW1, method similar to 5.1): Decreased mHTT levels; mHTT levels in transgenic Drosophilae [7]: reduced; wtHTT levels in cortical neurons (wtHTT [11]): did not reduce |
| O=c1cc(-c2ccccc2)c2c(O)cc(O)cc2o1 [compound 2] | did not reduce | effectively reduced | reduced | significantly improved | decrease | no decrease | Decreased levels | mHTT level in cortices (mHTT [12]): significantly reduced; concentration at 2 h [13]: 9.48 ng/g; levels of mHTT in the cortices (mHTT [14]): reduced; levels of mHTT in the striata (mHTT [14]): reduced; mHTT aggregates in the cortices (mHTT aggregates): No increase in mHTT aggregates; binding with normal ATXN3 protein (MBP-ATXN3-Q28) [15]: did not bind; binding affinity with Q25-GFP (Q25-GFP [16]): no binding affinity; level of mHTT in HD patient immortalized fibroblasts (mHTT [17]): reduced |
| COc1ccc2c(c1)/C(=C/c1cnc[nH]1)C(=O)N2 [compound 4, Su9516] | – | – | – | – | – | – | Decreased levels | – |
| CC(=O)Nc1cc2ccccc2oc1=O [compound 5] | – | – | – | – | – | – | – | reduction of mHTT levels in HD patient iPSC-derived neurons (mHTT [5]; HTRF 2B7/MW1, same method as for compounds 1 and 2): approximately 26.8% |
| O=c1cc(-c2ccccc2)c2ccc(O)c(O)c2o1 [compound 6] | – | – | – | – | – | – | Decreased levels | – |
